According to patent US7118895B2, “Process for producing aglycon by using diglycosidase and flavor-improved food containing the aglycon and converting agent to be used in the process” (Amano Enzyme Inc., priority 2000, dated 2006):

Tested on: Crude diglycosidase
Assay: Examination of pH in the conversion into isoflavone aglycons by diglycosidase using soybean materials
Type: biochemical, Penicillium multicolor IAM7153
Set-up: Decomposition efficiency of genistin family in soymilk / Decomposition efficiency of genistin family in defatted soybean / Decomposition efficiency of daidzin family in defatted soybean: concentration or dose not given beside the values
Settings: for Decomposition efficiency of genistin family in roasted soy flour: 55° C.
How it was run: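 Soybean materials (roasted soy flour, soymilk, defatted soybean, concentrated soy protein) suspended and adjusted to pH 2–11. Crude diglycosidase added at 1.88 AU/mL enzyme solution and reacted at 55° C. Ethanol-stopped at 0, 1, 3 and 6 h; isoflavone glycosides and aglycons detected by HPLC.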

[1] = pH4.8, heat treatment of enzyme: no, reaction time 0 h
[2] = pH4.8, heat treatment of enzyme: no, reaction time 1 h
[3] = pH4.8, heat treatment of enzyme: no, reaction time 3 h
[4] = pH4.8, heat treatment of enzyme: no, reaction time 6 h
[5] = pH4.8, heat treatment of enzyme: yes, reaction time 6 h
[6] = pH6.6, heat treatment of enzyme: no, reaction time 0 h
[7] = pH6.6, heat treatment of enzyme: no, reaction time 1 h
[8] = pH6.6, heat treatment of enzyme: no, reaction time 3 h
[9] = pH6.6, heat treatment of enzyme: no, reaction time 6 h
[10] = pH6.6, heat treatment of enzyme: yes, reaction time 6 h

Compound: O=c1c(-c2ccc(O)cc2)coc2cc(O[C@@H]3O[C@H](CO)[C@@H](O)[C@H](O)[C@H]3O)cc(O)c12 [genistin]
- Decomposition efficiency of genistin family in concentrated soybean protein (pH1.6, heat treatment of enzyme: no, reaction time 0 h): 49.7%
- Decomposition efficiency of genistin family in concentrated soybean protein (pH1.6, heat treatment of enzyme: no, reaction time 1 h): 50.2%
- Decomposition efficiency of genistin family in concentrated soybean protein (pH1.6, heat treatment of enzyme: no, reaction time 3 h): 51.6%
- Decomposition efficiency of genistin family in concentrated soybean protein (pH1.6, heat treatment of enzyme: no, reaction time 6 h): 53.3%
- Decomposition efficiency of genistin family in concentrated soybean protein (pH1.6, heat treatment of enzyme: yes, reaction time 6 h): 54.4%
- Decomposition efficiency of genistin family in roasted soy flour (pH2, heat treatment of enzyme no, reaction time 0 h): 50.0
- Decomposition efficiency of genistin family in roasted soy flour (pH2, heat treatment of enzyme no, reaction time 1 h): 49.7
- Decomposition efficiency of genistin family in roasted soy flour (pH2, heat treatment of enzyme no, reaction time 3 h): 50.7
- Decomposition efficiency of genistin family in roasted soy flour (pH2, heat treatment of enzyme no, reaction time 6 h): 52.7
- Decomposition efficiency of genistin family in roasted soy flour (pH2, heat treatment of enzyme yes, reaction time 6 h): 52.8
- Decomposition efficiency of genistin family in soymilk (pH2.3, heat treatment of enzyme: no, reaction time 0 h): 31.5%
- Decomposition efficiency of genistin family in soymilk (pH2.3, heat treatment of enzyme: no, reaction time 1 h): not detected
- Decomposition efficiency of genistin family in soymilk (pH2.3, heat treatment of enzyme: no, reaction time 3 h): not detected
- Decomposition efficiency of genistin family in soymilk (pH2.3, heat treatment of enzyme: no, reaction time 6 h): not detected
- Decomposition efficiency of genistin family in soymilk (pH2.3, heat treatment of enzyme: yes, reaction time 6 h): 35.5%
- Decomposition efficiency of genistin family in defatted soybean (pH2.6, heat treatment of enzyme: no, reaction time 0 h): 42.0%
- Decomposition efficiency of genistin family in defatted soybean (pH2.6, heat treatment of enzyme: no, reaction time 1 h): 36.3%
- Decomposition efficiency of genistin family in defatted soybean (pH2.6, heat treatment of enzyme: no, reaction time 3 h): 20.3%
- Decomposition efficiency of genistin family in defatted soybean (pH2.6, heat treatment of enzyme: no, reaction time 6 h): 20.1%
- Decomposition efficiency of genistin family in defatted soybean (pH2.6, heat treatment of enzyme: yes, reaction time 6 h): 44.3%
- Decomposition efficiency of genistin family in concentrated soybean protein (pH2.7, heat treatment of enzyme: no, reaction time 0 h): 49.7%
- Decomposition efficiency of genistin family in concentrated soybean protein (pH2.7, heat treatment of enzyme: no, reaction time 1 h): 23.1%
- Decomposition efficiency of genistin family in concentrated soybean protein (pH2.7, heat treatment of enzyme: no, reaction time 3 h): 22.1%
- Decomposition efficiency of genistin family in concentrated soybean protein (pH2.7, heat treatment of enzyme: no, reaction time 6 h): 17.5%
- Decomposition efficiency of genistin family in concentrated soybean protein (pH2.7, heat treatment of enzyme: yes, reaction time 6 h): 50.5%
- Decomposition efficiency of genistin family in roasted soy flour (pH3, heat treatment of enzyme no, reaction time 0 h): 50.0
- Decomposition efficiency of genistin family in roasted soy flour (pH3, heat treatment of enzyme no, reaction time 1 h): 3.4
- Decomposition efficiency of genistin family in roasted soy flour (pH3, heat treatment of enzyme no, reaction time 3 h): not detected
- Decomposition efficiency of genistin family in roasted soy flour (pH3, heat treatment of enzyme no, reaction time 6 h): not detected
- Decomposition efficiency of genistin family in roasted soy flour (pH3, heat treatment of enzyme yes, reaction time 6 h): 49.9
- Decomposition efficiency of genistin family in defatted soybean (pH3.4, heat treatment of enzyme: no, reaction time 0 h): 42.0%
- Decomposition efficiency of genistin family in defatted soybean (pH3.4, heat treatment of enzyme: no, reaction time 1 h): not detected
- Decomposition efficiency of genistin family in defatted soybean (pH3.4, heat treatment of enzyme: no, reaction time 3 h): not detected
- Decomposition efficiency of genistin family in defatted soybean (pH3.4, heat treatment of enzyme: no, reaction time 6 h): not detected
- Decomposition efficiency of genistin family in defatted soybean (pH3.4, heat treatment of enzyme: yes, reaction time 6 h): 44.3%
- Decomposition efficiency of genistin family in soymilk (pH3.5, heat treatment of enzyme: no, reaction time 0 h): 31.5%
- Decomposition efficiency of genistin family in soymilk (pH3.5, heat treatment of enzyme: no, reaction time 1 h): not detected
- Decomposition efficiency of genistin family in soymilk (pH3.5, heat treatment of enzyme: no, reaction time 3 h): not detected
- Decomposition efficiency of genistin family in soymilk (pH3.5, heat treatment of enzyme: no, reaction time 6 h): not detected
- Decomposition efficiency of genistin family in soymilk (pH3.5, heat treatment of enzyme: yes, reaction time 6 h): 37.0%
- Decomposition efficiency of genistin family in concentrated soybean protein (pH3.7, heat treatment of enzyme: no, reaction time 0 h): 50.7%
- Decomposition efficiency of genistin family in concentrated soybean protein (pH3.7, heat treatment of enzyme: no, reaction time 1 h): not detected
- Decomposition efficiency of genistin family in concentrated soybean protein (pH3.7, heat treatment of enzyme: no, reaction time 3 h): not detected
- Decomposition efficiency of genistin family in concentrated soybean protein (pH3.7, heat treatment of enzyme: no, reaction time 6 h): not detected
- Decomposition efficiency of genistin family in concentrated soybean protein (pH3.7, heat treatment of enzyme: yes, reaction time 6 h): 50.6%
- Decomposition efficiency of genistin family in roasted soy flour (pH4, heat treatment of enzyme no, reaction time 0 h): 49.9
- Decomposition efficiency of genistin family in roasted soy flour (pH4, heat treatment of enzyme no, reaction time 1 h): not detected
- Decomposition efficiency of genistin family in roasted soy flour (pH4, heat treatment of enzyme no, reaction time 3 h): not detected
- Decomposition efficiency of genistin family in roasted soy flour (pH4, heat treatment of enzyme no, reaction time 6 h): not detected
- Decomposition efficiency of genistin family in roasted soy flour (pH4, heat treatment of enzyme yes, reaction time 6 h): 50.2
- Decomposition efficiency of genistin family in defatted soybean [1]: 40.5%
- Decomposition efficiency of genistin family in soymilk [1]: 31.7%
- Decomposition efficiency of genistin family in defatted soybean [2]: not detected
- Decomposition efficiency of genistin family in soymilk [2]: not detected
- Decomposition efficiency of genistin family in defatted soybean [3]: not detected
- Decomposition efficiency of genistin family in soymilk [3]: not detected
- Decomposition efficiency of genistin family in defatted soybean [4]: not detected
- Decomposition efficiency of genistin family in soymilk [4]: not detected
- Decomposition efficiency of genistin family in defatted soybean [5]: 31.8%
- Decomposition efficiency of genistin family in soymilk [5]: 37.8%
- Decomposition efficiency of genistin family in roasted soy flour (pH5, heat treatment of enzyme no, reaction time 0 h): 49.9
- Decomposition efficiency of genistin family in roasted soy flour (pH5, heat treatment of enzyme no, reaction time 1 h): not detected
- Decomposition efficiency of genistin family in roasted soy flour (pH5, heat treatment of enzyme no, reaction time 3 h): not detected
- Decomposition efficiency of genistin family in roasted soy flour (pH5, heat treatment of enzyme no, reaction time 6 h): not detected
- Decomposition efficiency of genistin family in roasted soy flour (pH5, heat treatment of enzyme yes, reaction time 6 h): 52.6
- Decomposition efficiency of genistin family in concentrated soybean protein (pH5.1, heat treatment of enzyme: no, reaction time 0 h): 50.7%
- Decomposition efficiency of genistin family in concentrated soybean protein (pH5.1, heat treatment of enzyme: no, reaction time 1 h): not detected
- Decomposition efficiency of genistin family in concentrated soybean protein (pH5.1, heat treatment of enzyme: no, reaction time 3 h): not detected
- Decomposition efficiency of genistin family in concentrated soybean protein (pH5.1, heat treatment of enzyme: no, reaction time 6 h): not detected
- Decomposition efficiency of genistin family in concentrated soybean protein (pH5.1, heat treatment of enzyme: yes, reaction time 6 h): 51.4%
- Decomposition efficiency of genistin family in defatted soybean (pH5.4, heat treatment of enzyme: no, reaction time 0 h): 40.5%
- Decomposition efficiency of genistin family in defatted soybean (pH5.4, heat treatment of enzyme: no, reaction time 1 h): not detected
- Decomposition efficiency of genistin family in defatted soybean (pH5.4, heat treatment of enzyme: no, reaction time 3 h): not detected
- Decomposition efficiency of genistin family in defatted soybean (pH5.4, heat treatment of enzyme: no, reaction time 6 h): not detected
- Decomposition efficiency of genistin family in defatted soybean (pH5.4, heat treatment of enzyme: yes, reaction time 6 h): 6.2%
- Decomposition efficiency of genistin family in soymilk (pH6.2, heat treatment of enzyme: no, reaction time 0 h): 31.7%
- Decomposition efficiency of genistin family in soymilk (pH6.2, heat treatment of enzyme: no, reaction time 1 h): not detected
- Decomposition efficiency of genistin family in soymilk (pH6.2, heat treatment of enzyme: no, reaction time 3 h): not detected
- Decomposition efficiency of genistin family in soymilk (pH6.2, heat treatment of enzyme: no, reaction time 6 h): not detected
- Decomposition efficiency of genistin family in soymilk (pH6.2, heat treatment of enzyme: yes, reaction time 6 h): 38.3%
- Decomposition efficiency of genistin family in roasted soy flour (pH6.5, heat treatment of enzyme no, reaction time 0 h): 49.4
- Decomposition efficiency of genistin family in roasted soy flour (pH6.5, heat treatment of enzyme no, reaction time 1 h): not detected
- Decomposition efficiency of genistin family in roasted soy flour (pH6.5, heat treatment of enzyme no, reaction time 3 h): not detected
- Decomposition efficiency of genistin family in roasted soy flour (pH6.5, heat treatment of enzyme no, reaction time 6 h): not detected
- Decomposition efficiency of genistin family in roasted soy flour (pH6.5, heat treatment of enzyme yes, reaction time 6 h): 54.8
- Decomposition efficiency of genistin family in concentrated soybean protein [6]: 50.4%
- Decomposition efficiency of genistin family in defatted soybean [6]: 39.2%
- Decomposition efficiency of genistin family in concentrated soybean protein [7]: 13.9%
- Decomposition efficiency of genistin family in defatted soybean [7]: not detected
- Decomposition efficiency of genistin family in concentrated soybean protein [8]: 3.8%
- Decomposition efficiency of genistin family in defatted soybean [8]: not detected
- Decomposition efficiency of genistin family in concentrated soybean protein [9]: 1.7%
- Decomposition efficiency of genistin family in defatted soybean [9]: not detected
- Decomposition efficiency of genistin family in concentrated soybean protein [10]: 53.2%
- Decomposition efficiency of genistin family in defatted soybean [10]: 7.7%
- Decomposition efficiency of genistin family in soymilk (pH7.2, heat treatment of enzyme: no, reaction time 0 h): 31.2%
- Decomposition efficiency of genistin family in soymilk (pH7.2, heat treatment of enzyme: no, reaction time 1 h): not detected
- Decomposition efficiency of genistin family in soymilk (pH7.2, heat treatment of enzyme: no, reaction time 3 h): not detected
- Decomposition efficiency of genistin family in soymilk (pH7.2, heat treatment of enzyme: no, reaction time 6 h): not detected
- Decomposition efficiency of genistin family in soymilk (pH7.2, heat treatment of enzyme: yes, reaction time 6 h): 38.9%
- Decomposition efficiency of genistin family in defatted soybean (pH7.8, heat treatment of enzyme: no, reaction time 0 h): 40.4%
- Decomposition efficiency of genistin family in defatted soybean (pH7.8, heat treatment of enzyme: no, reaction time 1 h): 15.7%
- Decomposition efficiency of genistin family in defatted soybean (pH7.8, heat treatment of enzyme: no, reaction time 3 h): 12.3%
- Decomposition efficiency of genistin family in defatted soybean (pH7.8, heat treatment of enzyme: no, reaction time 6 h): 11.4%
- Decomposition efficiency of genistin family in defatted soybean (pH7.8, heat treatment of enzyme: yes, reaction time 6 h): 37.5%
- Decomposition efficiency of genistin family in roasted soy flour (pH8.5, heat treatment of enzyme no, reaction time 0 h): 55.8
- Decomposition efficiency of genistin family in roasted soy flour (pH8.5, heat treatment of enzyme no, reaction time 1 h): 28.7
- Decomposition efficiency of genistin family in roasted soy flour (pH8.5, heat treatment of enzyme no, reaction time 3 h): 19.2
- Decomposition efficiency of genistin family in roasted soy flour (pH8.5, heat treatment of enzyme no, reaction time 6 h): 14.5
- Decomposition efficiency of genistin family in roasted soy flour (pH8.5, heat treatment of enzyme yes, reaction time 6 h): 59.5
- Decomposition efficiency of genistin family in concentrated soybean protein (pH8.6, heat treatment of enzyme: no, reaction time 0 h): 53.8%
- Decomposition efficiency of genistin family in concentrated soybean protein (pH8.6, heat treatment of enzyme: no, reaction time 1 h): 50.4%
- Decomposition efficiency of genistin family in concentrated soybean protein (pH8.6, heat treatment of enzyme: no, reaction time 3 h): 45.1%
- Decomposition efficiency of genistin family in concentrated soybean protein (pH8.6, heat treatment of enzyme: no, reaction time 6 h): 36.3%
- Decomposition efficiency of genistin family in concentrated soybean protein (pH8.6, heat treatment of enzyme: yes, reaction time 6 h): 56.2%
- Decomposition efficiency of genistin family in soymilk (pH11.6, heat treatment of enzyme: no, reaction time 0 h): 34.8%
- Decomposition efficiency of genistin family in soymilk (pH11.6, heat treatment of enzyme: no, reaction time 1 h): not detected
- Decomposition efficiency of genistin family in soymilk (pH11.6, heat treatment of enzyme: no, reaction time 3 h): not detected
- Decomposition efficiency of genistin family in soymilk (pH11.6, heat treatment of enzyme: no, reaction time 6 h): not detected
- Decomposition efficiency of genistin family in soymilk (pH11.6, heat treatment of enzyme: yes, reaction time 6 h): 41.3%
